The structures appear in SMILES notation.

A word on the melting point: it is the temperature, or range, at which the solid turns liquid. `Cc1cc(Cl)c(C#N)c(C)n1` returned a melting point of 65 to 67 °C.

Compound `Cc1nn(C2CCS(=O)(=O)C2)c2ncc(C=O)cc12` (stereo not drawn) returned a melting point of 149 to 151 °C.

Turning to `CS(=O)c1ccccc1N` (stereo not drawn), the melting point is 156 to 158 °C.

As to `CC(=O)Cn1c(CCl)nc2sc3c(c2c1=O)CCCC3`, the melting point was 132 to 134 °C.

As for `Sc1nnc2sc3ccccc3n12`, the melting point fell in the range of 252 to 254 °C.

The compound `Cc1nnc(CCl)s1` yielded a melting point of 76 to 78 °C.

As to `NN1C(=O)NC2(CCCCC2)C1=O`, the melting point is 164 to 166 °C.

As to `O=C(O)c1ccccc1S(=O)(=O)N1CCCCC1`, the melting point fell in the range of 106 to 108 °C.

Take `CC(C)c1cc(N)on1`: the melting point fell in the range of 33 to 35 °C.

Compound `Cc1ncc(N)s1` showed a melting point of 120 to 122 °C.

The compound `NC(=O)Cc1nc2ccccc2[nH]1` came in with a melting point of 229 to 231 °C.

As for `CC(C)C(=O)N1CCCC1C(=O)O` (stereo not drawn), the melting point is 118 to 120 °C.

`O=C(O)c1cccnc1-n1ccnc1` yielded a melting point of 179 to 181 °C.

In turn, `CC(C)n1cc2cc(N)ccc2n1` showed a melting point of 105 to 107 °C.

`Cc1nnc(NC(=O)OCC(F)(F)F)s1`: the melting point is 231 to 233 °C.

Regarding `CSc1ccc(N)cc1Cl`, the melting point fell in the range of 74 to 76 °C.

Turning to `Cc1c(C(=O)O)oc2c(Cl)cccc12`, the melting point was in the range of 229 to 231 °C.

Regarding `Nc1ccccc1C(=O)Nc1cccc(C(F)(F)F)c1`, the melting point lay within 133 to 135 °C.

Regarding `N#CCC(=O)Nc1ccc(C(=O)O)cc1`, the melting point was 195 to 197 °C.

For the compound `O=C(O)C1CC(=O)N(c2nccs2)C1` (stereo not drawn), the melting point was 184 to 186 °C.

`CC(=O)c1ccc(-c2ccccc2)s1`: the melting point is 115 to 117 °C.

For the compound `O=C1CS/C(=C/C(=O)c2cccc(Cl)c2)N1`, the melting point was 207 to 209 °C.

`CC(=O)c1c(O)cc(F)cc1F` displayed a melting point of 45 to 47 °C.

`Cn1ncc2c(=O)[nH]nnc21` gave a melting point of 152 to 154 °C.

Consider `CN(C(=O)c1ccc(N)cc1Cl)C1CCCCC1`, for which the melting point is 172 to 174 °C.

In turn, `Clc1nc(-c2ccccc2)nc2scc(-c3ccccc3)c12` displayed a melting point of 147 to 149 °C.

On to `COC(=O)c1ccc(F)c(N)c1`, for which the melting point was in the range of 67 to 69 °C.

In the case of `CNC(=O)NCCC(=O)O`, the melting point was 129 to 131 °C.

Turning to `CC(C)NC(=O)c1ccccc1N`, the melting point fell in the range of 148 to 150 °C.

As to `Nc1nc(-c2cc(F)ccc2F)cs1`, the melting point fell in the range of 145 to 147 °C.

With `COc1cc(N)cc(OC)c1Br`, the melting point was in the range of 149 to 151 °C.

The compound `O=c1[nH]c(CCl)nc2cc(C(F)(F)F)ccc12` registered a melting point of 209 to 211 °C.

For the compound `N#Cc1cccc(NC(=O)CSc2ccccc2C(=O)O)c1`, the melting point was 118 to 120 °C.

Compound `CNc1ncccc1C#N` displayed a melting point of 87 to 89 °C.

Compound `OCCn1ncc2ccccc21` came in with a melting point of 48 to 50 °C.

`NS(=O)(=O)c1ccc(S(=O)(=O)Cl)cc1`: the melting point was in the range of 144 to 146 °C.

Turning to `CC1=CC(=O)N(C2CCCCC2)C1=O`, the melting point was in the range of 99 to 101 °C.

With `Clc1cncc(N2CCOCC2)n1`, the melting point is 114 to 116 °C.

For the compound `CC(C)C1(C)CC(=O)NC1=O` (stereo not drawn), the melting point was 78 to 80 °C.

For the compound `O=C(O)c1cc(-c2ccccc2Cl)[nH]n1`, the melting point lay within 225 to 227 °C.

The compound `Fc1ccc(C(c2ccc(F)cc2)N2CCNCC2)cc1` came in with a melting point of 89 to 92 °C.

Turning to `O=C(O)COc1ccc(C(F)(F)F)cc1`, the melting point was 184 to 186 °C.

The compound `CCOC(=O)c1ccc(OCC#N)cc1` had a melting point of 73 to 75 °C.

`O=C(O)C=Cc1ccccc1OC(F)F` gave a melting point of 164 to 166 °C.

Compound `O=C(O)c1cc(S(=O)(=O)Cl)c(Br)s1` showed a melting point of 109 to 111 °C.

Turning to `O=C(O)c1cc(-c2ccccc2)ccc1Cl`, the melting point was 199 to 201 °C.

In turn, `CC1CCN(Cc2csc(N)n2)CC1` had a melting point of 145 to 147 °C.

In turn, `CC(C)c1nc(C#N)c(NN)o1` came in with a melting point of 103 to 105 °C.

Turning to `CC(Oc1ccc(-c2nc3ccccc3s2)cc1)C(=O)O` (stereo not drawn), the melting point was 217 to 219 °C.

In turn, `O=C(C=NO)Nc1ccc(F)cc1Cl` had a melting point of 145 to 147 °C.

`CCOc1cc(C(=O)O)ccc1C` had a melting point of 173 to 175 °C.

`CC(C)(C(=O)O)n1cc([N+](=O)[O-])cn1` yielded a melting point of 121 to 123 °C.

`NNC(=O)N1CCOCC1` returned a melting point of 121 to 123 °C.

In turn, `O=C(O)c1ccc(Cl)c(S(=O)(=O)Nc2ccc(Br)cc2)c1` displayed a melting point of 225 to 227 °C.

Take `O=C(O)c1cccc(OCc2ccc(Cl)cc2)c1`: the melting point was 171 to 173 °C.

Consider `COc1ccc(Oc2c(F)cc(CCl)cc2F)cc1`, for which the melting point fell in the range of 62 to 64 °C.

As to `O=C(NCc1ccc(C(=O)O)cc1)OCc1ccccc1`, the melting point was 190 to 192 °C.

The compound `CC(=O)Nc1ccc(OC2CCCCC2O)cc1` (stereo not drawn) had a melting point of 139 to 141 °C.

For `O=C(CCl)NC12CC3CC(CC(C3)C1)C2`, the melting point lay within 110 to 112 °C.

`C=CC(=O)Nc1ccc(Br)cc1`: the melting point lay within 197 to 199 °C.

`NCc1ccnc(-n2cccn2)c1` displayed a melting point of 44 to 46 °C.

`O=C(O)CCc1ncc(-c2ccc(F)cc2)o1` had a melting point of 144 to 146 °C.

The compound `CC(Oc1cccnc1)C(=O)O` (stereo not drawn) displayed a melting point of 126 to 128 °C.

On to `Cc1ccc(-n2nc(C(C)C)cc2N)cc1`, for which the melting point lay in the range of 47 to 49 °C.

In the case of `CSc1ccc(Cl)nn1`, the melting point lay in the range of 104 to 106 °C.

In turn, `Cc1nc2ccccc2nc1CCl` showed a melting point of 121 to 123 °C.

`Nc1scnc1-c1ccccc1` showed a melting point of 130 to 132 °C.

`O=C(Nc1nc(-c2ccc(Cl)c(Cl)c2)cs1)C(Cl)c1ccccc1` (stereo not drawn) came in with a melting point of 128 to 130 °C.

Take `Cc1ccc(C(=O)O)cc1NC(=O)c1ccc(Br)cc1`: the melting point fell in the range of 309 to 311 °C.

Turning to `Cc1cccc2[nH]cc(C=O)c12`, the melting point lay in the range of 188 to 190 °C.

With `CN(CCS(=O)(=O)F)S(=O)(=O)c1ccc(F)cc1`, the melting point is 129 to 131 °C.

Turning to `Cc1ccc(S(=O)(=O)C2CCCCC2=O)cc1` (stereo not drawn), the melting point was 77 to 79 °C.

For `O=C(Nc1cn[nH]c1)Oc1ccccc1`, the melting point was in the range of 179 to 181 °C.

Turning to `Cc1sc(C(=O)O)cc1S(N)(=O)=O`, the melting point lay in the range of 249 to 251 °C.

On to `O=C(O)c1ccccc1Nc1ccc(OC(F)F)cc1`, for which the melting point lay within 153 to 155 °C.

Consider `O=C(O)c1ccccc1NCc1ccco1`, for which the melting point fell in the range of 156 to 158 °C.

In turn, `CC(=O)Nc1ccc(C)c(S(=O)(=O)Cl)c1` gave a melting point of 95 to 97 °C.

As for `COc1cc(C=O)cc2c1OCCO2`, the melting point lay in the range of 81 to 83 °C.

As for `N#Cc1ncc(C(=O)O)cc1Br`, the melting point was 177 to 179 °C.

`CCc1nnn[nH]1` had a melting point of 93 to 95 °C.

For the compound `O=C1COc2ccc(Cl)cc2N1`, the melting point is 211 to 213 °C.

Consider `NC(=NO)c1ccc(N2CCCCC2)cc1`, for which the melting point lay within 169 to 171 °C.

The compound `CCCc1noc2nc(C)cc(C(=O)O)c12` displayed a melting point of 169 to 171 °C.

On to `CN(C)c1ccc(C#N)c(F)c1`, for which the melting point lay within 56 to 58 °C.

`CC(Oc1ccccc1Cc1ccccc1)C(=O)O` (stereo not drawn) showed a melting point of 91 to 93 °C.

In turn, `CC(O)(C(=O)O)c1ccc(Cl)cc1` (stereo not drawn) displayed a melting point of 129 to 131 °C.

For the compound `CC(C)(C)c1ccc(N)c(C(=O)O)c1`, the melting point lay within 144 to 146 °C.

Compound `COC(=O)C(=O)CC(=O)c1cccnc1` returned a melting point of 113 to 115 °C.

For the origin of these results see a melting point compilation (Tetko et al.).
